Molecules are shown by their SMILES. Where a name gives a salt, the structure may show the parent alone.

These results are taken from patent US7005429B2, “Method of treating estrogen receptor positive carcinoma with 17 α-dihydroequilin” (Wyeth, priority 1991, dated 2006).

Test [1] relates to DMBA induced mammary carcinoma. Put plainly: DMBA induced mammary carcinoma in rats, tumor size. It is filed as in vivo, Sprague-Dawley female rats. Particulars: rat. As for the experimental part:
Rats were treated either with vehicle (control), 17α-dihydroequilin sulfate, or tamoxifen. In addition, one group of rats were ovariectomized after tumor development and then treated with vehicle. The animals were treated for a 4 week period. Tumor volumes were measured weekly.

Test [2] concerns MDA-231 (estrogen receptor negative) human breast cancer cell line. Put plainly: Cell cycle phase distribution by flow cytometric DNA analysis in MDA-231 cells. Type of test: cell-based. As to conditions: for % G1 / % G2/M / % S: 24 hours. The protocol: (§1) In the in vitro standard pharmacological test procedure, 17α-dihydroequilin was evaluated as a representative compound in MCF-7 (estrogen receptor positive) and […] (estrogen receptor negative) human breast cancer cell lines to determine the effect of the compounds of this invention on cell proliferation as measured by the percent of the cells present in the G1, S, and G2/M phases of the cell cycle. Briefly, the cell lines were plated in T-25 tissue culture flasks at an initial density of between 50,000 and 100,000 cells/flask and incubated for a period of 24 hours in phenol-red free IMEM medium supplemented with dextran-coated-charcoal stripped fetal bovine serum (10%), glutamine (5 mg/mL) and gentamycin sulfate (2 mg/mL).
On the technique in general: A flow cytometer gives signals particle by particle.

In test [3] the test system is MCF-7 (estrogen receptor positive) human breast cancer cell line. Put plainly: Cell cycle phase distribution by flow cytometric DNA analysis in MCF-7 cells. As to conditions: for shift of cells from the resting G1 phase to the proliferative S phase (estrogenic activity): compound alone, 0.1 μM; for prevention of E2 induced proliferation (shift from G1 to S phase): in combination with E2; for % G1 / % G2/M / % S: 24 hours. It is filed as cell-based. As for the experimental part: as §1

For test [4], the system named is estrogen receptor positive MCF-7 human breast cancer cells. As to conditions: prevents cells from entering the S phase; cited from earlier work.
For test [5] the following is noted: rat; 200 μg/day for 3 weeks; cited from earlier work.
Setting [6] is: test compound (0.1 nM) in combination with E2 (1 nM).

For `C[C@]12CC[C@H]3C(=CCc4cc(OS(=O)(=O)O)ccc43)[C@@H]1CC[C@H]2O` [17α-DHEQ-S, 17α-Dihydroequilin sulfate], in test [1] (daily dose 0.5 mg/kg), the “percent change of tumor size from week 0, Week 1” value (shortened to “percent change … Week 1”) is on record as 47.2%; the “percent change of tumor size from week 0, Week 2” value (shortened to “percent change … Week 2”) was determined as 75.9%; the “percent change of tumor size from week 0, Week 3” value (shortened to “percent change … Week 3”) is 59.4%; the “percent change of tumor size from week 0, Week 4” value (“percent change … Week 4” for short) is 111.6%. In addition, in test [1] (daily dose 5.0 mg/kg), the “percent change … Week 1” value is given as −18.2%; the “percent change … Week 2” value is recorded as −21.2%; the “percent change … Week 3” value is −8.2%; the “percent change … Week 4” value came to 3.1%. For the same compound, in test [1] (daily dose 25.0 mg/kg), the “percent change … Week 1” value is −49.7%; the “percent change … Week 3” value was −51.2%; the “percent change … Week 4” value is listed as −46.7%.
On to `C[C@]12CC[C@H]3C(=CCc4cc(O)ccc43)[C@@H]1CC[C@H]2O` [17α-dihydroequilin], for which, in test [2] (setting [6]), the “% G1” value came out at 26%, the “% G2/M” value is listed as 13% and the “% S” value came to 60%. For the same compound, in test [3], the “shift of cells from the resting G1 phase to the proliferative S phase (estrogenic activity)” value is reported as “did not cause a shift of cells from the resting G1 phase to the proliferative S phase” and the “prevention of E2 induced proliferation (shift from G1 to S phase)” value is reported as “prevented the E2 induced proliferation”. In test [3] (setting [6]), the “% G1” value is reported as 42%, the “% G2/M” value was 15% and the “% S” value is on record as 42%.
Turning to `C[C@]12CC[C@@H]3c4ccc(O)cc4CC[C@H]3[C@@H]1CC[C@@H]2O` [E2, 17β-estradiol], in test [2] (E2 alone), the “shift of cells from the G1 phase to the S phase (cell proliferation)” value is given as “this shift was not observed”, the “% G1” value was 38%, the “% G2/M” value was found to be 17% and the “% S” value is 45%. In addition, in test [3] (E2 alone), the “shift of cells from the G1 phase to the S phase (cell proliferation)” value is reported as “caused cell proliferation”, the “% G1” value was found to be 29%, the “% G2/M” value came out at 5% and the “% S” value came out at 66%.
For `CC/C(=C(\c1ccccc1)c1ccc(OCCN(C)C)cc1)c1ccccc1` [Tamoxifen, Z-1-(4β-dimethylaminoethoxyphenyl) 1,2-diphenyl but-1-ene citratel], the “inhibition of E2 stimulated cell growth” value in test [4] is “inhibit cell E2 stimulated cell growth”. Further, in test [1] (4 week treatment), the “reduction in tumor size (in words)” value is recorded as “caused a reduction in tumor size”. Besides, in test [1] (daily dose 2.0 mg/kg), the “percent change … Week 2” value was −18.7%; the “percent change … Week 3” value is recorded as −28.5%; the “percent change … Week 4” value is on record as −20.1%. In test [5], the “accumulation of administered [3H]-E2 in tissue” value was “prevents the accumulation of administered [^3H]-E2 in uterine, vaginal, and mammary tumor tissue”. Besides, in test [2] (setting [6]), the “% G1” value was 28%, the “% G2/M” value is reported as 14% and the “% S” value came to 58%. In test [3], the “shift of cells from the resting G1 phase to the proliferative S phase (estrogenic activity)” value is “A similar result was observed” and the “prevention of E2 induced proliferation (shift from G1 to S phase)” value is listed as “A similar result was obtained”. In addition, in test [3] (setting [6]), the “% G1” value is given as 40%, the “% G2/M” value was 14% and the “% S” value turned out to be 46%.
